Reference: patent publication US7666635B2, “Process for the preparation of amides” (priority 1997, dated 2010)
Counter-ions that a name gives are not always drawn. Like-named read-outs stand apart in the source and are kept apart here.

Key:
[1] = tested on: NA40 nitrile hydratase (resting NA40 cells); assay: Substrate specificity of resting NA40 cells; assay type: cell-based, Amycolatopsis NA40; conditions: resting NA40 cells, 20° C., 10 min; 3-cyanopyridine = 100; substrate concentration per Table 8
Description: (3) For determination of the activity of NA40 with respect to a number of substrates, cells having a dry weight of 0.0388 mg were incubated in the buffer described above. The reaction was started by addition of the appropriate substrate and incubated at 20° C. with shaking for 10 min. The reaction was stopped by addition of 0.2 ml of 2 N HCl and the reaction mixture was briefly centrifuged. The supernatant was analysed by means of HPLC or gas chromatography.

[2] = tested on: purified nitrile hydratase from NA40; assay: Substrate specificity of the purified nitrile hydratase; assay type: biochemical, Amycolatopsis NA40; conditions: purified enzyme; 3-cyanopyridine = 100
Description: The substrate specificity was determined analogously to Example 2 (1).
1.7 Units of enzyme were added to the reaction mixture (2.0 ml). The reaction mixture contained the respective substrate in 45 mM phosphate buffer (pH 7.0).

[3] = tested on: Rhodococcus rhodochrous J1; assay: Substrate specificity of the Rhodococcus strains; assay type: cell-based; conditions: Rhodococcus rhodochrous J1; 3-cyanopyridine = 100
Description: (§1) Rhodococcus rhodochrous J1 was cultured for 72 h in the medium described in EP-A 0 307 926. The microorganisms Rhodoccus GF674, GF578, GF270 and GF376 were cultured in the following media at pH 7.0 for up to 96 h:
(§2) The substrate specificity is summarized as relative activity in Table 15.

Rhodococcus GF270 = assay: Substrate specificity of the Rhodococcus strains; assay type: cell-based; conditions: Rhodococcus GF270; 3-cyanopyridine = 100
Description: as §1
(§3) Rhodoccus GF674 in a medium comprising yeast extract 1.0 g/l, fructose 5.0 g/l, malt extract 10.0 g/l, acetamide 5.0 g/l, KH2PO4 2.0 g/l, MgSO47H2O 0.5 g/l and CoCl2.6H2O 10.0 mg. Rhodoccus GF578 in a medium containing yeast extract 1.0 g/l, fructose 15.0 g/l, malt extract 10.0 g/l, acetamide 25.0 g/l, KH2PO4 2.0 g/l, MgSO47H2O 0.5 g/l and CoCl2.6H2O 5.0 mg. […] Rhodoccus GF3 76 in a medium containing yeast extract 1.0 g/l, sodium citrate 10.0 g/l, malt extract 15.0 g/l, butyramide 7.5 g/l, KH2PO4 2.0 g/l, MgSO4.7H2O 0.5 g/l and CoCl2.6H2O 15.0 mg.
as §2

Rhodococcus GF376 = assay: Substrate specificity of the Rhodococcus strains; assay type: cell-based; conditions: Rhodococcus GF376; 3-cyanopyridine = 100
Description: as §1, §3, §2

Rhodococcus GF578 = assay: Substrate specificity of the Rhodococcus strains; assay type: cell-based; conditions: Rhodococcus GF578; 3-cyanopyridine = 100
Description: as §1, §3, §2

Rhodococcus GF674 = assay: Substrate specificity of the Rhodococcus strains; assay type: cell-based; conditions: Rhodococcus GF674; 3-cyanopyridine = 100
Description: as §1, §3, §2

[4] = tested on: purified nitrile hydratase from NA40; assay type: biochemical, Amycolatopsis NA40
Description: The effect of various inhibitors was determined.

Amycolatopsis NA40 = assay: Effects of inducers and cofactors on growth and nitrile hydratase activity in the basal medium; assay type: cell-based
Description: (1) For determination of the nitrile hydratase activity, a reaction mixture (2 ml) containing 3-cyanopyridine (1.0 M, 1.0 ml), potassium phosphate buffer (pH 7.0, 0.1 M, 0.5 ml) and 0.5 ml of cell suspension were incubated at 20° C. for 30 min with stirring. The reaction was stopped by addition of 0.2 ml of 3 N HCl. After centrifuging briefly, the nicotinamide formed was determined by means of HPLC (Shimadzu SPD 6A system using a C18 column (Develosil ODS-HG-5. […]); eluent: 10 mM KH2PO4/H3PO4 (pH 2.8)/acetonitrile 9:1 (v/v); flow rate: 1 ml/min; the absorption was measured at 230 nm). The specific activity was expressed as µmol of nicotinamide formed/ml/min/OD610 nm.
The reaction rates of aliphatic nitriles in the enrichment medium (Table 1) with isolated bacteria is summarized in Table 5, the effects of inducers and cofactors in the basal medium (Table 2) is summarized in Table 4 and the activity comparison of Amycolatopsis to Rhodoccus in the basal medium (Table 2) is summarized in Table 6.

[5] = inhibitor 1 mM, without inhibitor = 100
[6] = substance added as inducer to basal medium
[7] = substance added as inducer to basal medium, nicotinamide formed from 3-cyanopyridine, 20° C.
[8] = substance added as cofactor to basal medium

Compound | Relative activity [1] [%] | Relative activity, Enzyme reaction [2] [%] | relative activity (substrate specificity) [3] [%] | relative activity (substrate specificity) (Rhodococcus GF270) [%] | relative activity (substrate specificity) (Rhodococcus GF376) [%] | relative activity (substrate specificity) (Rhodococcus GF578) [%] | relative activity (substrate specificity) (Rhodococcus GF674) [%] | further results
N#Cc1cccc(Cl)c1 [m-Chlorobenzonitrile] | 75 | 90 | 43 | 8.41 | 8.63 | 28.9 | 27.8 | –
CCCC#N [n-Butyronitrile] | 194 | 101 | 352 | 181 | 195 | 368 | 491 | –
O=C(O)CI [Iodoacetic acid] | – | – | – | – | – | – | – | Relative activity [4]: 39%
O=S(=O)(O)c1cc(O)c(O)c(S(=O)(=O)O)c1 [Tiron, disodium salt of 4,5-dihydroxy-1,3-benzene-disulphonic acid] | – | – | – | – | – | – | – | Relative activity [4, 5]: 110%
O=C1CCCCCN1 [ε-Caprolactam] | – | – | – | – | – | – | – | Growth (OD610 nm) (Amycolatopsis NA40; [6]): 0.66 OD610 nm; Specific activity (Amycolatopsis NA40; [6]): 14.5 μmol/ml/min/OD; Total activity (Amycolatopsis NA40; [7]): 9.52 µmol/mL/min
NNc1ccccc1 [Phenylhydrazine] | – | – | – | – | – | – | – | Relative activity [4, 5]: 8%
CC#N [Acetonitrile] | – | – | 608 | 659 | 806 | 347 | 1.49 | –
NO [Hydroxylamine] | – | – | – | – | – | – | – | Relative activity [4, 5]: 37%
O.O.O.O.O.O.[Cl-].[Cl-].[Co+2] [CoCl2•6H2O] | – | – | – | – | – | – | – | Growth (OD610 nm) (Amycolatopsis NA40; [8]): 8.41 OD610 nm; Specific activity (Amycolatopsis NA40; [8]): 5.68 μmol/ml/min/OD; Total activity (Amycolatopsis NA40; [8]): 47.8 µmol/mL/min
c1ccc(-c2ccccn2)nc1 [α,α′-Dipyridyl] | – | – | – | – | – | – | – | Relative activity [4, 5]: 100%
O=C(O)c1cc[c]([Hg][Cl])cc1 [4-Chloromercurobenzoic acid] | – | – | – | – | – | – | – | Relative activity ([4]; inhibitor 0.1 mM, without inhibitor = 100): 69%
C=C(C)C#N [Methacrylonitrile] | 130 | 125 | 86.9 | 0 | 0 | 122 | 176 | –
C/C=C/C(N)=O [Crotonamide] | – | – | – | – | – | – | – | Growth (OD610 nm) (Amycolatopsis NA40; [6]): 3.41 OD610 nm; Specific activity (Amycolatopsis NA40; [6]): 6.72 μmol/ml/min/OD; Total activity (Amycolatopsis NA40; [7]): 22.9 µmol/mL/min
CCC(N)=O [Propionamide] | – | – | – | – | – | – | – | Growth (OD610 nm) (Amycolatopsis NA40; [6]): 1.91 OD610 nm; Specific activity (Amycolatopsis NA40; [6]): 0.48 μmol/ml/min/OD; Total activity (Amycolatopsis NA40; [7]): 0.92 µmol/mL/min
CC=CC#N [Crotononitrile] | 52 | 67 | 78.2 | 37.1 | 110 | 124 | 98.0 | –
CCC#N [Propionitrile] | 105 | 222 | 434 | 37.3 | 245 | 132 | 274 | –

Compound | Relative activity [1] [%] | Relative activity, Enzyme reaction [2] [%] | relative activity (substrate specificity) [3] [%] | relative activity (substrate specificity) (Rhodococcus GF270) [%] | relative activity (substrate specificity) (Rhodococcus GF376) [%] | relative activity (substrate specificity) (Rhodococcus GF578) [%] | relative activity (substrate specificity) (Rhodococcus GF674) [%] | further results
O=C(O)CN(CCN(CC(=O)O)CC(=O)O)CC(=O)O [EDTA, ethylenediaminetetra-acetic acid] | – | – | – | – | – | – | – | Relative activity [4]: 115%
CCN1C(=O)C=CC1=O [N-ethylmaleimide] | – | – | – | – | – | – | – | Relative activity [4, 5]: 97%
C=C(C)C(N)=O [Methacrylamide] | – | – | – | – | – | – | – | Growth (OD610 nm) (Amycolatopsis NA40; [6]): 3.33 OD610 nm; Specific activity (Amycolatopsis NA40; [6]): 0.74 μmol/ml/min/OD; Total activity (Amycolatopsis NA40; [7]): 2.46 µmol/mL/min
N#Cc1ccccn1 [2-Cyanopyridine] | 128 | 221 | 45 | 15.7 | 54.3 | 200 | 308 | –
Oc1cccc2cccnc12 [8-Hydroxyquinoline] | – | – | – | – | – | – | – | Relative activity [4]: 110%
N#Cc1cccnc1Cl [2-Chloro-3-cyanopyridine] | 126 | 90 | – | – | – | – | – | –
NNC(N)=O [Semicarbazide] | – | – | – | – | – | – | – | Relative activity [4, 5]: 82%
O.O.O.O.O.O.O.O=S(=O)([O-])[O-].[Fe+2] [FeSO4•7H2O] | – | – | – | – | – | – | – | Growth (OD610 nm) (Amycolatopsis NA40; [8]): 8.32 OD610 nm; Specific activity (Amycolatopsis NA40; [8]): 0.40 μmol/ml/min/OD; Total activity (Amycolatopsis NA40; [8]): 3.36 µmol/mL/min
N#Cc1ccccc1 [Benzonitrile] | 51 | 64 | 27 | 13.4 | 57.2 | 85.1 | 138 | –
N#Cc1ccccc1Cl [o-Chlorobenzonitrile] | 96 | 127 | 2.8 | 0 | 0 | 49.0 | 64.8 | –
NC(N)=O [Urea] | – | – | – | – | – | – | – | Growth (OD610 nm) (Amycolatopsis NA40; [6]): 1.72 OD610 nm; Specific activity (Amycolatopsis NA40; [6]): 1.73 μmol/ml/min/OD; Total activity (Amycolatopsis NA40; [7]): 2.97 µmol/mL/min
N#Cc1ccncc1 [4-Cyanopyridine] | 168 | 179 | 70 | 55.6 | 79.8 | 167 | 231 | –
CCN(CC)C(=S)S [Diethyl dithiocarbamate] | – | – | – | – | – | – | – | Relative activity [4, 5]: 89%
CCCC(N)=O [Butyramide] | – | – | – | – | – | – | – | Growth (OD610 nm) (Amycolatopsis NA40; [6]): 2.19 OD610 nm; Specific activity (Amycolatopsis NA40; [6]): 0.88 μmol/ml/min/OD; Total activity (Amycolatopsis NA40; [7]): 0.19 µmol/mL/min
c1cnc2c(c1)ccc1cccnc12 [o-Phenanthroline] | – | – | – | – | – | – | – | Relative activity [4, 5]: 89%
